# Source: article PMC9474705 (British journal of pharmacology, 2022)
# Key:
# β2AR (β2AR stable cells) = β2AR (β2AR stable cells) (Homo sapiens, UniProt P07550); test: [3H]DHA competition on membranes; format: binding
# β2AR-RlucII = β2AR-RlucII (Homo sapiens, UniProt P07550); test: BRET Gs; format: cell-based; conditions: agonist, […] min, mini-Gs
# β1AR-RlucII = β1AR-RlucII (Homo sapiens, UniProt P08588); test: BRET Gs; format: cell-based; conditions: agonist, […] min, mini-Gs
# Chain of β1AR-RlucII (P08588 whole entry): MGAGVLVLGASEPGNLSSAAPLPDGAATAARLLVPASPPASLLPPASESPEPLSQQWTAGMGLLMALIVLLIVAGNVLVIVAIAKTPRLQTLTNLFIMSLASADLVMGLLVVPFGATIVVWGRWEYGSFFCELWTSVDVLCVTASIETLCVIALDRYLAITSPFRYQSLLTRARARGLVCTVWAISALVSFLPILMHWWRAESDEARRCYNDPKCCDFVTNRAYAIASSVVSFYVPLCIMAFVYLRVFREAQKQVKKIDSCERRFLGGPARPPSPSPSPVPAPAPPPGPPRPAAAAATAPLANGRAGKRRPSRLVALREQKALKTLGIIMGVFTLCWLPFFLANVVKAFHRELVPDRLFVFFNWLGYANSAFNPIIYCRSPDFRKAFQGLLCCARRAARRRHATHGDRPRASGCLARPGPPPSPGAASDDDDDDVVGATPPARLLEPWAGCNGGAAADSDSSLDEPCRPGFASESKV
# Chain of β2AR (β2AR stable cells) (P07550 whole entry): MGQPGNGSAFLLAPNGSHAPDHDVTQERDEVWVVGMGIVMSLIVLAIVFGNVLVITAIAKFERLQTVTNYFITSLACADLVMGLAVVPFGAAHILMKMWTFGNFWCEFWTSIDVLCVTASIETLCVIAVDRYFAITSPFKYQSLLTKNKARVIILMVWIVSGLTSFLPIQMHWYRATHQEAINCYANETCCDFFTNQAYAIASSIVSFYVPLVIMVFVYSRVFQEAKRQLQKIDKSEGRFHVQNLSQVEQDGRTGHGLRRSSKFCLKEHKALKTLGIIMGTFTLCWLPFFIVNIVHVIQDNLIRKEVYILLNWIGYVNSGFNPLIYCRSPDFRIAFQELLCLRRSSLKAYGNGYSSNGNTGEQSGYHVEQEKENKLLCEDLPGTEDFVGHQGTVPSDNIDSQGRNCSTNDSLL
# Chain of β2AR-RlucII (P07550 whole entry): as above
Compound,IC50 (β2AR (β2AR stable cells)) [µM],EC50 (β2AR-RlucII),EC50 (β1AR-RlucII)
CC(CCc1ccccc1)NC(C)C(O)c1ccc(O)cc1 (stereo not shown) [Buphenine],0.251,,
CCCCNCC(O)c1ccc(O)cc1 (stereo not shown) [Bamethane],31.6,all compounds showed efficacy in recruiting Gαs to the receptor,

# More lines, main results first:
IC50 (β2AR (β2AR stable cells)) [µM],Compound,EC50 (β2AR-RlucII),EC50 (β1AR-RlucII)
1.26,CC(NCCc1ccc(O)cc1)C(O)c1ccc(O)cc1 (stereo not shown) [Ritodrine],,
5.01,Oc1ccc(CC2NCCc3cc(O)c(O)cc32)cc1 (stereo not shown) [Higenamine],,
5.01,CC(CCc1ccc(O)cc1)NCCc1ccc(O)c(O)c1 (stereo not shown) [Dobutamine],,DOB was slightly more efficacious for β1AR
